Experiments:
[1] = tested on: purified human monocytes; test: Monocyte cytokine production upon exposure to RSV and recombinant RSV viruses
Procedure: (§1) Human PBMC were isolated from leukopaks using Histopaque (Sigma, St. Louis, Mo.). Monocytes were isolated using the Monocyte Isolation Kit II (positive selection for CD3, CD7, CD16, CD19, CD56, CD123, and glycophorin A, MiltenyiBiotec) with Macs LS separation columns. Remaining cells were >90% monocytes by anti-CD14 staining and forward- and side-light scatter analysis using FACScan (Becton-Dickinson, Elmhust, Ill.).
(§2) Purified monocytes were stimulated with LPS (1 μg) or purified proteins F or Glycoprotein (3 μg; kindly provided by V. Randolph, Wyeth Lederle, N.Y.). All rRSV variants were grown in Hep-2 cells and Vero cells as described^29,30, and used at 10^5 pfu multiplicity of infection (MOI)=1] for stimulations. Lysate of Hep-2 cells and Vero cells were used as control stimuli. UV-inactivation was performed as described elsewhere19^5 and lack of virus replication confirmed in cell culture. […] An additional peptide encoding the conserved 13 amino acid region upstream of the GCRR (164-176)^3 was also used in add-back experiments. […] The GCRR and control peptides included biotin-SGSG at the amino termini. The anti-CX3CR1 antibody was kindly provided by P. Murphy, NIAID, NIH and used as described^18. […] Cytokines were measured in supernatant fluids 18 hours after stimulation by immunoassay following manufacturer's instructions (Biosource Europe S. A, Belgium).

[2] = tested on: TLR4; test: Endotoxin (LPS)-mediated cytokine production by human monocytes; conditions: for effect on LPS-induced cytokine production (IL-6, IL-1β): added to LPS-treated monocytes
Procedure: as §1
(§3) Purified monocytes were stimulated with LPS (1 μg) or purified proteins F or Glycoprotein (3 μg; kindly provided by V. Randolph, Wyeth Lederle, N.Y.). All rRSV variants were grown in Hep-2 cells and Vero cells as described^29,30, and used at 10^5 pfu multiplicity of infection (MOI)=1] for stimulations. Lysate of Hep-2 cells and Vero cells were used as control stimuli. UV-inactivation was performed as described elsewhere19^5 and lack of virus replication confirmed in cell culture. […] An additional peptide encoding the conserved 13 amino acid region upstream of the GCRR (164-176)^3 was also used in add-back experiments. […] The GCRR and control peptides included biotin-SGSG at the amino termini. The anti-CX3CR1 antibody was kindly provided by P. Murphy, NIAID, NIH and used as described^18. For supplemental experiments, we used peptidoglycan (PGN; Fluka, Sigma) at 10 μg and CpGDNA (GTCGTT; HyCult Biotechnology) at 1 mM. Cytokines were measured in supernatant fluids 18 hours after stimulation by immunoassay following manufacturer's instructions (Biosource Europe S. A, Belgium).

[3] = tested on: purified human monocytes; test: F protein-mediated cytokine production by purified human monocytes; conditions: for effect on F-induced IL-6 production: added to F-treated monocytes
Procedure: as §1, §3

[4] = tested on: NF-κB; test: NF-κB nuclear translocation immunoassay in human monocytes; assay type: cell-based; conditions: 60 min; purified protein or live virus stimulation
Procedure: Human monocytes were stimulated with purified RSV F and/or Glycoprotein (1 μg each) or indicated viruses for 60 minutes. After stimulation nuclear extracts were obtained using a hypotonic lysis buffer (10 mM HEPES (pH 7.9), 1.5 mM MgCl2, 10 mM KCl, 0.5 mM DTT, 0.1% Triton X-100 and protease inhibitors) and an extraction buffer (20 mM HEPES (pH 7.9), 1.5 mM MgCl2, 0.42 M NaCl, 0.5 mM DTT, 0.2 mM EDTA, 1.0% Igepal CA-630, 25% (v/v) glycerol and protease inhibitors). NF-κB subunits p50 and p65 were detected by a modified immunoassay using a double stranded biotinylated oligonucleotide containing the consensus sequence for NF-κB binding (5′-GGGACTTTCC-3′) [SEQ ID NO:______] (Chemicon International, Germany).

[5] = tested on: murine alveolar macrophages; test: Cytokine production by murine alveolar macrophages incubated with purified proteins and recombinant viruses; assay type: cell-based; conditions: macrophages from naive mice
Procedure: Alveolar macrophages were obtained by bronchoalveolar lavage (BAL) followed by magentic bead depletion (Militenyi Biotec, Germany). Macrophages were incubated with brefeldin A for six hours, fixed with commercially available fixation and permeabilization reagents, CYTOFIX/CYTOPERM (Becton Dickinson, Elmhust, Ill.), and stained using phycoerythrin (PE)-conjugated anti-IL-6 antibody (Becton Dickinson). Data was analyzed using side and forward scatter plots and FACScan (Becton Dickinson).

[6] = tested on: RSV; conditions: Glycoprotein added to F protein during immunization; cited from earlier work
[7] = tested on: TLR2; test: PGN-stimulated cytokine production by human monocytes; conditions: co-incubation
Procedure: as §1, §2

[8] = tested on: TLR9; test: CpGDNA-stimulated cytokine production by human monocytes; conditions: co-incubation
Procedure: as §1, §2

Question: For “G^164-176: Glycoprotein peptide encompassing amino acids 164-176, conserved 13 amino acid segment upstream of the GCRR”, which “modulation of IL-6 production by ΔG” value ([1]; peptide added with ΔG) is on record?
Answer: The value was “failed to modulate IL-6 production”.

Question: Which results are given for “HFEVFNFVPCSICSNNPTCWAICKRI [GCRR peptide]”?
Answer: effect on IL-10 production of monocytes incubated with LPS [2]: affected production of IL-10; effect on LPS-induced cytokine production (IL-6, IL-1β) [2]: dose-dependent inhibition of cytokine production; effect on F-induced IL-6 production [3]: dose-dependent inhibition

Question: With “bovine serum albumin [reference compound]” as the substance, how does the “effect on F-induced IL-6 production” value [3] read?
Answer: The value was “no effect”.

Question: Which “effect on LPS-induced cytokine production (IL-6, IL-1β)” value [2] does the source give for “YFARGPGIHIRKR [HIV V3 loop control peptide, reference compound]” here?
Answer: The value was “no effect”.

Question: And the “effect on F-induced IL-6 production” value [3]?
Answer: The value was “inhibitory effect was not observed”.

Question: Which NF-κB nuclear translocation [4] does the source give for “Glycoprotein: purified RSV attachment Glycoprotein from subgroup A (A2 strain)” here?
Answer: Its NF-κB nuclear translocation is “decreased”.

Question: What about the “cytokine production in murine alveolar macrophages” value [5] of the same substance?
Answer: Its value is “modulating the innate responses elicited by both purified F and RSV”.

Question: And the “decrease in production of interferon-γ upon RSV challenge vs immunization with F alone” value [6]?
Answer: The value was “up to 70 fold”.

Question: And the “cytokine production elicited by TLR2 agonist PGN” value [7]?
Answer: Its value is “inhibited”.

Question: And the “cytokine production elicited by TLR9 agonist CpGDNA” value [8]?
Answer: Its value is “inhibited”.

Question: What about the “decrease in IL-6 production compared to monocytes incubated with F alone” value ([3]; F + Glycoprotein, P<0.01) of the same substance?
Answer: Its value is “approximately 1.5 log”.

Question: What about the “effect on F-induced IL-1β or IL-10 in supernatant fluids” value ([3]; not shown) of the same substance?
Answer: Its value is “inhibitory effect similar to that observed for Glycoprotein on F-induced IL-6 production”.

Question: And the “IL-6 production by monocytes incubated with purified protein alone” value ([3]; supernatant fluids, 18 hours, immunoassay)?
Answer: Its value is “low”.

Question: And the “IL-6 response of mG-infected cells after add-back to culture media” value ([1]; added to mG-infected monocytes)?
Answer: Its value is “restored to levels similar to those elicited by RSV”.

Question: With “HFEVFNFVPSSISSNNPTSWAISKRI [GSRR, reference compound]” as the substance, how does the “effect on LPS-induced cytokine production (IL-6, IL-1β)” value [2] read?
Answer: Its value is “no effect”.

Question: Which “effect on F-induced IL-6 production” value [3] does the source give for “GlycoproteinA peptide (residues 273-288): control peptide within the Glycoprotein mucin-like domain [reference compound]” here?
Answer: The value was “inhibitory effect was not observed”.

Reference: patent US20080025997A1, “Cysteine-rich region of respiratory syncytial virus and methods of use therefor” (priority 2004, published 2008)
